The assay deals with cholera toxin B5 subunit (CT B5) (Vibrio cholerae serotype O1, UniProt P01556). Briefly: biochemical. Type of assay: binding.

From publication PMC2893567 (Macromolecular bioscience, 2010) come the findings set out here.

What is called IC50 is the concentration needed to halve the response being measured. A low value points to greater potency.

Sequence of cholera toxin B5 subunit (CT B5) (P01556 22-124 limits assumed): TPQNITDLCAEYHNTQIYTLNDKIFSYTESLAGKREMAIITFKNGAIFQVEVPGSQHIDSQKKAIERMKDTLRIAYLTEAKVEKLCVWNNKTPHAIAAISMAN

Regarding “XGAKAKPKGAKAKPKGAKAKPKGAKAKPKGAKAKPXGGGG [35-RCK-2]”, the “Non-specific binding of unmodified peptide” value was “less than 20%”. The same measure, in the same setting: the entry for “XGAGAGPSGAGAGPSGAGAGPSGAGAGPSGAGAGPXGGGG [35-RCG-2]” is “less than 20%”. Turning to `O=C[C@H](O)[C@@H](O)[C@@H](O)[C@H](O)CO` [Galactose], the Improvement over galactose is recorded as 1. For the setting “IC50 (saccharide concentration)”, this molecule registered a half-inhibitory concentration (IC50) of 30 to 45 mM.
